Assay results reported in patent US20140309171A1, “MARKER FOR BLOOD COAGULATION” (Universite Catholique De Louvain, priority 2011, published 2014).
“Also recorded” adds a separate entry of the source.

What was measured:
[1] = system: Ser79 acetyl-CoA carboxylase (ACC) phosphorylation in human platelets; assay: Western blot of phosphorylated (Ser79) ACC in human platelets; type: cell-based; details: isolated washed human platelets treated with the agonist
Experimental: (§1) Washed human platelets (used in in vitro studies). Platelets were obtained from adult healthy volunteers in accordance with the Ethics Commission of our institution (Commission d'Ethique Biomédicale Hospitalo-Facultaire, Université catholique de Louvain). Whole blood was collected with butterfly needle 21G into Sodium Citrate 1:10 solution (S-monovette). Platelet-rich plasma (PRP) was obtained by 15 min centrifugation at 330 g. The platelets pellet was then washed in Tyrode modified buffer (135 mM NaCl, 12 mM NaHCO3, 1 mM Sodium Citrate, 2.9 mM KCl, 0.3 mM Na2HPO4, 1 mM MgCl2, 5 mM D-glucose, 10 mM Hepes, 0.35% bovine serum albumin (BSA), pH 7.4 at 37° C.) and resuspended to a density of 2.5 10^5 platelets/μl for the measurement of intracellular Ca^2+ or platelet aggregation. For Western Blot analysis, PRP with eptifibatide 4 μg/ml (Integriline, GlaxoSmithKline) and ectonucleotidase apyrase (grade I) 0.5 U/ml was layered over a density barrier of iodixanol (Optiprep®) that allowed the erythrocytes and leucocytes to pellet during centrifugation at 350 g for 15 min. The platelets, because of their small size, sediment much more slowly. After centrifugation at 800 g for 10 min, the resulting pellet was resuspended to a density of 2·10^5 platelets/μl in Tyrode modified buffer before treatment and lysis of samples.
(§2) Proteins were separated as described (Miranda et al. 2010. J Clin Invest 103(6): 879-887). The membranes were probed with the following antibodies: α1/α2 AMPK (Kinasource), phospho-ACC (S79) (1:1000; Cell Signalling), phospho-MLC (S19) (1:10000; Sigma-Aldrich), phospho-VASP (T278) (1:1000; ECM Bioscience), cofilin (Cell Signalling), phospho-cofilin (Ser 3) (Cell Signalling). Bound antibodies were detected by enhanced chemiluminescence (Thermofisher). For each gel, control of loading was realized by immunoblotting using an anti-β-actin (1:10000; Santa Cruz Biotechnology), anti-gelsolin (Santa Cruz Biotechnology) or anti-GAPDH (1:1000; Cell Signalling) antibody after the membranes were stripped. Band intensities were quantified by scanning and processing image intensities with the program ImageJ (1.33 for Mac OS X). The quantification of immunoblots presented in results was obtained after normalization using the internal loading control.
Platelets were isolated from human blood samples as described in the experimental procedures. The isolated platelets were treated with increasing doses of thrombin (0.01, 0.03, 0.1, 0.3 and 1 U/ml), the thromboxane A2 (TXA2) receptor agonist U46619 (0.1, 0.3, 1, 3 and 10 μM), collagen (0.5, 1, 2.5, 5 and 10 μg/ml) or ADP (2.5, 5, 10, 25 nd 50 μM) for 1 min. Following treatment, the platelets were lysed and subjected to Western blotting for determining phosphorylation of Ser79 of ACC.

AMPK = AMPK enzyme assay after immunoprecipitation from platelet extracts; type: cell-based; details: human platelets treated with 0.1 U/ml thrombin
Experimental: AMPK was immunoprecipitated with 10 μg of α1-AMPK or α2-AMPK antibodies (Kinasource) from 50 μg of platelet extracts and assayed in a final volume of 50 μl Hepes 50 mM, pH 7.2, with 0.2 mM SAMS peptide (Substrate for AMP-activated Protein Kinase, Tocris Bioscience), 0.2 mM adenosine 5′-monophosphate (AMP), and 0.1 mM [^32P]MgATP (specific radioactivity: 1000 cpm/pmol; Perkin Elmer) at 30° C. Aliquots (10 μl) were removed and spotted onto Whatman P81 papers for measurement of ^32P incorporation. One unit of protein kinase activity corresponds to the incorporation of 1 nmol of phosphate into the appropriate peptide substrate per min under the assay conditions.
AMPK was immunoprecipitated with anti-α1- and anti-α2-AMPK antibodies prior to AMPK assay. The AMPK catalytic α1-subunit isoform accounted for the total AMPK activity in platelets (FIG. 1B), confirming the immunoblotting results.

[2] = system: cofilin Ser3 phosphorylation; assay: Western blot of cofilin Ser3 phosphorylation in human platelets; type: cell-based; details: human platelets, 0.1 U/ml thrombin, maximal at 1 min, persisted for 10 min
Experimental: (§3) Washed human platelets (used in in vitro studies). Platelets were obtained from adult healthy volunteers in accordance with the Ethics Commission of our institution (Commission d'Ethique Biomédicale Hospitalo-Facultaire, Université catholique de Louvain). Whole blood was collected with butterfly needle 21G into Sodium Citrate 1:10 solution (S-monovette). Platelet-rich plasma (PRP) was obtained by 15 min centrifugation at 330 g. The platelets pellet was then washed in Tyrode modified buffer (135 mM NaCl, 12 mM NaHCO3, 1 mM Sodium Citrate, 2.9 mM KCl, 0.3 mM Na2HPO4, 1 mM MgCl2, 5 mM D-glucose, 10 mM Hepes, 0.35% bovine serum albumin (BSA), pH 7.4 at 37° C.) and resuspended to a density of 2.5 10^5 platelets/μl for the measurement of intracellular Ca^2+ or platelet aggregation. […]
(§4) Proteins were separated as described (Miranda et al. 2010. J Clin Invest 103(6): 879-887). […] Bound antibodies were detected by enhanced chemiluminescence (Thermofisher). […] Band intensities were quantified by scanning and processing image intensities with the program ImageJ (1.33 for Mac OS X). The quantification of immunoblots presented in results was obtained after normalization using the internal loading control.

[3] = system: myosin light chain (MLC) Ser 19 phosphorylation; assay: Western blot of MLC Ser19 phosphorylation in human platelets; type: cell-based; details: human platelets, 0.1 U/ml thrombin, significant after 2 min, persisted till 10 min
Experimental: as §3, §4

[4] = system: MLC phosphorylation in platelets from WT mice; assay: Western blot of MLC phosphorylation in murine platelets; type: cell-based, mouse; details: thrombin 0.05 U/ml
Experimental: (§5) Eight- to 12-week-old mice were bled under sodium pentobarbital anesthesia (25-35 mg·kg^−1) from the retroorbital plexus. Mouse blood was collected in a 1/10 ACD solution (12 mM citric acid, 15 mM sodium citrate, 25 mM glucose) with ectonucleotidase apyrase (grade I) 0.5 U/ml. PRP was obtained by centrifugation at 800 g for 5 s followed by 5 min at 150 g. PRPs from three animals were pooled. Platelets were washed in Tyrode modified buffer and resuspended to a density of 2.5 10^5 platelets/μl for the measurement of platelet aggregation and for Western Blot analysis. At least three independent experiments were performed on PRP from different pools.
as §2, with “For each gel, control of loading was realized by immunoblotting using an anti-β-actin (1:10000; Santa Cruz Biotechnology), anti-gelsolin (Santa Cruz Biotechnology) or anti-GAPDH (1:1000; Cell Signalling) antibody after the membranes were stripped.” left out

[5] = system: VASP Thr 278 phosphorylation; assay: Western blot of VASP Thr278 phosphorylation in human platelets; type: cell-based; details: human platelets, 0.1 U/ml thrombin
Experimental: as §3, §4

washed human platelets = assay: Platelet aggregation, light transmission (Chrono-Log Aggregometer); type: cell-based; details: 0.025 U/ml thrombin alone
Experimental: as §1
Light transmission during thrombin-induced platelet aggregation in human and murine PRP was recorded with a Chrono-Log Aggregometer at 37° C., under stirring condition (1200 crpm). The platelet suspension was incubated with dimethyl sulfoxide (DMSO, vehicle) or STO-609 (10 μM, Tocris) for 2 min before the addition of the thrombin (+/−0.03 U/ml). CaCl2 2 mM was added prior to the agonists.
To evaluate the potential implication of CaMKKβ in platelet aggregation, washed human platelets were pre-incubated for 2 min with 10 μM STO-609, prior to treatment with thrombin or ADP.

[6] = system: cofilin phosphorylation in platelets from WT mice; assay: Western blot of cofilin phosphorylation in murine platelets; type: cell-based, mouse; details: thrombin 0.05 U/ml
Experimental: as §5
as §2, with “For each gel, control of loading was realized by immunoblotting using an anti-β-actin (1:10000; Santa Cruz Biotechnology), anti-gelsolin (Santa Cruz Biotechnology) or anti-GAPDH (1:1000; Cell Signalling) antibody after the membranes were stripped.” left out

[7] = system: VASP phosphorylation in platelets from WT mice; assay: Western blot of VASP phosphorylation in murine platelets; type: cell-based, mouse; details: thrombin 0.05 U/ml
Experimental: as §5
as §2, with “For each gel, control of loading was realized by immunoblotting using an anti-β-actin (1:10000; Santa Cruz Biotechnology), anti-gelsolin (Santa Cruz Biotechnology) or anti-GAPDH (1:1000; Cell Signalling) antibody after the membranes were stripped.” left out

blood coagulation [8] = assay: Thrombin time (TT) in cardiac surgery patients; type: in vivo, human
Experimental: (§6) A blood sample was drawn during CPB. […] ACT was measured at the bedside of the patients: a sample of blood was drawn, transferred into an appropriate test vial and the clotting time was measured. The second sample was taken 4 h after surgery and the coagulation was assessed in the same time (activated partial thromboplastin time, apTT; thrombin time, TT). Thrombin time (Thromboclotin™, Siemens, Marburg, Germany) and activated partial thromboplastin time (Platelin L; bioMerieux, France) were measured in a tube containing 0.129 M of trisodium citrate and determined using a coagulation device (MDA II coagulation analyzeer; bioMérieux). After surgery, a chest tube was inserted and a closed chest drainage system was attached to promote drainage of air and fluid. Bleeding was evaluated by the amount of blood collected in the chest tube of drainage over a period of 6 h after admission in intensive cares.

blood coagulation [9] = assay: Activated partial thromboplastin time (aPTT) in cardiac surgery patients; type: in vivo, human
Experimental: as §6

[10] = Post-operative bleeding (chest tube drainage) in cardiac surgery patients; type: in vivo, human; details: patient 6, after restoration of coagulation by protamine administration
Experimental: as §6

blood coagulation [11] = assay: Activated coagulation time (ACT) in cardiac surgery patients; type: in vivo, human
Experimental: as §6

[12] = patient 6, after protamine injection
[13] = n = 29 patients, during surgery, after 47086±17766 UI UFH
[14] = patient 1, during surgery, UFH 17000 units
[15] = patient 2, during surgery, UFH 33000 units
[16] = patient 3, during surgery, UFH 25500 units
[17] = patient 4, during surgery, UFH 10000 units
[18] = patient 5, during surgery, UFH 25000 units
[19] = patient 6, during surgery, UFH 41000 units

## collagen
[1]
  Ser79 ACC phosphorylation induced by platelet agonist: not observed; also recorded: failed to increase

## Nc1ncnc2c1ncn2[C@@H]1O[C@H](COP(=O)(O)OP(=O)(O)O)[C@@H](O)[C@H]1O [ADP, adenosine diphosphate]
[1]
  Ser79 ACC phosphorylation induced by platelet agonist: not observed; also recorded: not lead to ACC phosphorylation; also recorded: failed to increase

## thrombin
AMPK
  AMPK activation: led to AMPK activation; also recorded: induces AMPK activation
[2]
  cofilin phosphorylation in Ser3 induced by agonist: increase
[3]
  MLC Ser 19 phosphorylation induced by agonist: increase
[4]
  phosphorylation of MLC induced by agonist: increase
[5]
  VASP phosphorylation on Thr 278 induced by agonist: significant increased phosphorylation
Washed human platelets
  platelet aggregation, % of aggregation: 69±3%
[1]
  Ser79 ACC phosphorylation induced by platelet agonist: increased; also recorded: specifically induced
[6]
  phosphorylation of cofilin induced by agonist: increase
[7]
  phosphorylation of VASP induced by agonist: increase

## protamine
Blood coagulation [8]; [12]
  TT: 30 s
Blood coagulation [9]; [12]
  aPTT: 27 s
[10]
  Bleeding: controlled

## CCCCC[C@H](O)/C=C/[C@@H]1[C@@H](C/C=C\CCCC(=O)O)[C@H]2CO[C@@H]1C2 [U46619]
[1]
  Ser79 ACC phosphorylation induced by platelet agonist: not observed; also recorded: failed to increase

## unfractionated heparin [UFH]
Blood coagulation [8]; [13]
  TT, mean: >120 s
Blood coagulation [8]; [14]
  TT: >120 s
Blood coagulation [8]; [15]
  TT: >120 s
Blood coagulation [8]; [16]
  TT: >120 s
Blood coagulation [8]; [17]
  TT: >120 s
Blood coagulation [8]; [18]
  TT: >120 s
Blood coagulation [8]; [19]
  TT: >120 s
Blood coagulation [8]; patients 1-6, during surgery, after 25250±11000 UI UFH
  TT, mean: >120 s
Blood coagulation [9]; [14]
  aPTT: >180 s
Blood coagulation [9]; patient 2, 4 h after surgery, UFH 33000 units
  aPTT: >180 s
Blood coagulation [9]; [16]
  aPTT: >180 s
Blood coagulation [9]; [17]
  aPTT: >180 s
Blood coagulation [9]; [18]
  aPTT: >180 s
Blood coagulation [9]; [19]
  aPTT: >180 s
Blood coagulation [11]; mean of patients 1-6, during surgery, after 25250±11000 UI UFH
  ACT, mean: 568 ± 65 s
Blood coagulation [11]; [13]
  ACT, mean: 594 ± 100 s
Blood coagulation [11]; [14]
  ACT: 485 s
Blood coagulation [11]; [15]
  ACT: 523 s
Blood coagulation [11]; [16]
  ACT: 635 s
Blood coagulation [11]; [17]
  ACT: 498 s
Blood coagulation [11]; [18]
  ACT: 698 s
Blood coagulation [11]; [19]
  ACT: 568 s
